Results as given in US9420780B2, “Composition, method for producing the composition, and phytosanitary formulation containing same” (RHODIA OPERATIONS, priority 2011, dated 2016).

Assay: Solubility of agrochemical active ingredients in the solvent compositions: visual observation at 25° C., at 0° C. for 7 days (CIPAC MT39), and at 0° C. with nucleation
Type: physicochemical
Details: tebuconazole 300 g/L EC
Method: 1. Description of the Tests Performed: The formulations were prepared by dilution of various active ingredients reported in the table here below in the compositions 1 to 4 (solvents according to the invention) synthesised here above: a) Visual observation at 25° C.: the appearance of the formulation is noted and the possible presence of crystals is eventually recorded. b) Visual observation at 0° C.: the formulation is placed for a period of 7 days at 0° C. and the appearance of the formulation is noted and the possible presence of crystals is eventually recorded (CIPAC test MT39). c) Visual observation at 0° C. with nucleation (for introduction into the liquid of a crystal of the pure active ingredient): […] The appearance of the formulation is noted and the possible presence of crystals or growth of the crystal introduced is eventually recorded. The active ingredients used are commercially available.

State of the solution at +25° C.: Clear
State of the solution at 0° C. (7 days at 0° C.): Clear
State of the solution at 0° C. after seeding (crystal introduced, further 7 days at 0° C.): Crystal
SMILES: CN1CCCC1=O [Solvent 6, N-methylpyrrolidone]
